The results in this text go back to PubChem BioAssay (NCI).

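Test compounds were applied to cells in 96-well plates for 48 hours at 5 doses. At the TGI there is no net growth.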 *1 amine or outer side, *2 acyl side, *3 side chain or, on linkers, in order; H or OH if unused. Where a SMILES comes first, the peptide text is derived from it. The star is where a group is joined. γGlu = O=C(O)[CH](CCC(=O)[*:2])N[*:1]; NHOH = ON*

Some test systems named below: BT-549 breast; COLO 205 colon; DU-145 prostate; HL-60(TB) leukemia; K-562 leukemia; KM12 colon; MALME-3M melanoma; MDA-MB-435; MDA-N; NCI-H23 lung; OVCAR-4 ovarian; OVCAR-8 ovarian; SK-MEL-2 melanoma; SK-OV-3 ovarian; SNB-75 CNS; T-47D breast; HT29 colon; LOX IMVI melanoma; MCF7 breast; NCI-H522 lung.
What all share (assay): NCI anticancer screen, dose series, 48 h

Take `CCOC(=O)C(NC(=O)c1cccc(Cl)c1)(N1CCN(c2cc3c(cc2F)c(=O)c(C(=O)O)cn3C2CC2)CC1)C(F)(F)F` (stereo unspecified): the TGI came to 38.4 µM with BT-549 breast; 30.2 µM in the test on COLO 205 colon; 70.5 µM with DU-145 prostate; 6.64 µM with HL-60(TB) leukemia; 20.1 µM with K-562 leukemia; 23.9 µM in the test with KM12 colon. Besides, the TGI in the test on MALME-3M melanoma came to 32.2 µM; in the test with MDA-MB-435, 28.8 µM; in the test on MDA-N, 29.4 µM; with NCI-H23 lung, 37.1 µM; with OVCAR-4 ovarian, 39 µM; with OVCAR-8 ovarian, 60.7 µM. Also, the TGI stood at 29.8 µM in the test on SK-MEL-2 melanoma, 66.5 µM in the test with SK-OV-3 ovarian, 50.7 µM with SNB-75 CNS and 48.9 µM in the test on T-47D breast.
In the case of `COc1ccc(Nc2nc3ccc(C(F)(F)F)cc3nc2C(=O)O)cc1`, the TGI in the test with BT-549 breast was 49.4 µM; in the test on COLO 205 colon it was above 100 µM; in the test with DU-145 prostate it was above 100 µM; with HT29 colon, above 100 µM; with K-562 leukemia, above 100 µM; in the test with KM12 colon it was 70.9 µM. For the same compound, the TGI in the test with LOX IMVI melanoma was above 100 µM; in the test with MALME-3M melanoma, above 100 µM; in the test on MCF7 breast, above 100 µM; in the test with MDA-MB-435, above 100 µM; in the test on MDA-N, above 100 µM; with NCI-H23 lung, 93.3 µM. Besides, the TGI is above 100 µM in the test with OVCAR-4 ovarian; above 100 µM with OVCAR-8 ovarian; above 100 µM with SK-MEL-2 melanoma; 71.5 µM with SK-OV-3 ovarian; 78.6 µM in the test with SNB-75 CNS; above 100 µM in the test with T-47D breast.
Consider `COC(=O)c1ccc(/C=C2\Oc3cc(O)ccc3C2=O)cc1`, for which the TGI in the test on BT-549 breast, in the test with COLO 205 colon, with DU-145 prostate, in the test on HL-60(TB) leukemia, in the test with K-562 leukemia and in the test on KM12 colon was above 100 µM in each case. Moreover, the TGI in the test with MCF7 breast, in the test with MDA-MB-435, with MDA-N, in the test with NCI-H23 lung, in the test with NCI-H522 lung and in the test on OVCAR-4 ovarian was above 100 µM throughout. In addition, the TGI in the test on OVCAR-8 ovarian, with SK-OV-3 ovarian, with SNB-75 CNS and with T-47D breast was above 100 µM each time.
For the compound `O=c1c2cc(S(=O)(=O)Nc3ccc(Cl)cc3Cl)ccc2ncn1NS(=O)(=O)c1cccc2ccccc12`, the TGI in the test with BT-549 breast is 80.6 µM; in the test on COLO 205 colon, above 100 µM; in the test with DU-145 prostate, above 100 µM; in the test on HL-60(TB) leukemia, 37.5 µM; in the test on HT29 colon it was above 100 µM; with K-562 leukemia it was above 100 µM. Also, the TGI in the test on KM12 colon is above 100 µM; in the test with LOX IMVI melanoma it was 50 µM; in the test with MALME-3M melanoma, above 100 µM; with MCF7 breast, above 100 µM; with MDA-MB-435, above 100 µM; with MDA-N, above 100 µM. The TGI with NCI-H23 lung, in the test on NCI-H522 lung, with OVCAR-4 ovarian, in the test with OVCAR-8 ovarian, with SK-MEL-2 melanoma and in the test with SK-OV-3 ovarian was above 100 µM each time. In the test with SNB-75 CNS, this compound registered a TGI above 100 µM.
`N#C/C(C(=O)Nc1ccc(Cl)cc1)=C(/N)N1CCOCC1`: the TGI in the test with BT-549 breast, in the test with COLO 205 colon, in the test on DU-145 prostate, in the test with HT29 colon, in the test on K-562 leukemia and with KM12 colon was above 100 µM each time. Also, the TGI in the test on LOX IMVI melanoma, in the test on MCF7 breast, with MDA-MB-435, in the test with MDA-N, in the test on NCI-H23 lung and in the test with OVCAR-8 ovarian was above 100 µM throughout. Further, the TGI with SK-MEL-2 melanoma, in the test with SK-OV-3 ovarian, in the test with SNB-75 CNS and with T-47D breast was above 100 µM throughout.
Turning to `CCOC(=O)CNC(=O)C(CCC(=O)NO)NC(=O)CCC(N)C(=O)O` (stereo unspecified) (γGlu-Glu(NHOH)-Gly-OEt; configuration not given here), the TGI in the test with BT-549 breast, with COLO 205 colon, in the test on DU-145 prostate, in the test with HL-60(TB) leukemia, in the test with HT29 colon and in the test with K-562 leukemia was above 100 µM each time. Further, the TGI in the test on KM12 colon, with LOX IMVI melanoma, in the test on MCF7 breast, in the test on MDA-MB-435, in the test with MDA-N and in the test on NCI-H23 lung was above 100 µM each time. In addition, the TGI in the test on NCI-H522 lung, in the test with OVCAR-4 ovarian, in the test on OVCAR-8 ovarian, with SK-MEL-2 melanoma, in the test with SK-OV-3 ovarian and with SNB-75 CNS was above 100 µM in each case. Also, the TGI in the test on T-47D breast is above 100 µM.
As for `O=C(O)c1nc2ccccc2nc1NCc1ccc(F)cc1`, the TGI in the test on BT-549 breast is above 100 µM; in the test with COLO 205 colon it was 93.5 µM; in the test on DU-145 prostate it was above 100 µM; with HL-60(TB) leukemia, above 100 µM; in the test on HT29 colon it was above 100 µM; with K-562 leukemia, above 100 µM. The TGI in the test on KM12 colon, with LOX IMVI melanoma, in the test on MCF7 breast, in the test on MDA-MB-435, with MDA-N and in the test with NCI-H23 lung was above 100 µM in each case. The TGI in the test with NCI-H522 lung, in the test on OVCAR-8 ovarian, in the test on SK-MEL-2 melanoma, in the test with SNB-75 CNS and with T-47D breast was above 100 µM throughout.
For `Cc1cccc(/C=N/NC(=S)N(C)CCc2ccccn2)n1`, the TGI is above 100 µM with BT-549 breast; above 100 µM with COLO 205 colon; above 100 µM with HT29 colon; above 45.6 µM in the test with K-562 leukemia; above 100 µM in the test with KM12 colon; above 100 µM in the test on LOX IMVI melanoma. The TGI is above 54 µM in the test with MALME-3M melanoma; above 100 µM with MCF7 breast; above 100 µM in the test on MDA-MB-435; above 100 µM with MDA-N; above 100 µM in the test on NCI-H23 lung; above 100 µM in the test with NCI-H522 lung. For the same compound, the TGI was above 100 µM with OVCAR-4 ovarian; above 59 µM in the test with OVCAR-8 ovarian; above 100 µM in the test with SK-MEL-2 melanoma; above 100 µM with SK-OV-3 ovarian; 21.9 µM with SNB-75 CNS; above 100 µM in the test on T-47D breast.
With `COC(=O)C(/C(=N/N)C(=O)Nc1cccc(O)c1)c1nc2ccccc2[nH]c1=O` (stereo unspecified), the TGI in the test with BT-549 breast, with HL-60(TB) leukemia, with HT29 colon, in the test on K-562 leukemia, in the test with KM12 colon and in the test with LOX IMVI melanoma was above 100 µM each time. Also, the TGI with MCF7 breast, in the test on MDA-MB-435, in the test on MDA-N, with NCI-H23 lung, with NCI-H522 lung and with OVCAR-4 ovarian was above 100 µM in each case. Moreover, the TGI with OVCAR-8 ovarian, in the test with SK-MEL-2 melanoma, in the test with SK-OV-3 ovarian, with SNB-75 CNS and in the test with T-47D breast was above 100 µM each time.
Consider `N=c1oc2ccc(Cl)cc2cc1C(N)=O`, for which the TGI in the test on BT-549 breast, in the test on COLO 205 colon, in the test on DU-145 prostate, in the test on HL-60(TB) leukemia, in the test on HT29 colon and with K-562 leukemia was above 100 µM in each case. In addition, the TGI was 88.4 µM with KM12 colon; above 100 µM in the test on LOX IMVI melanoma; 37.1 µM with MALME-3M melanoma; 82 µM in the test with MDA-MB-435; 69.1 µM in the test on MDA-N; 75.1 µM in the test with NCI-H23 lung. The TGI was 85.9 µM in the test with OVCAR-4 ovarian; above 100 µM in the test on OVCAR-8 ovarian; 31.8 µM with SK-MEL-2 melanoma; above 100 µM in the test with SK-OV-3 ovarian; above 100 µM in the test with SNB-75 CNS; 94.6 µM in the test on T-47D breast.
Consider `CCCCCCC1CC(=O)C1(Cl)Cl` (stereo unspecified), for which the TGI in the test on BT-549 breast is 48.6 µM; in the test on DU-145 prostate it was 92.8 µM; in the test on HL-60(TB) leukemia, 44.1 µM; in the test with HT29 colon it was 66.8 µM; with K-562 leukemia, above 100 µM; in the test on KM12 colon, 55.7 µM. The TGI amounted to 44.6 µM with LOX IMVI melanoma; 38.8 µM with MALME-3M melanoma; 63.7 µM in the test on MCF7 breast; 85 µM in the test on MDA-N; 57.7 µM in the test with NCI-H23 lung; 34.6 µM with NCI-H522 lung. Further, the TGI in the test with OVCAR-4 ovarian was above 100 µM; in the test with OVCAR-8 ovarian it was 59.5 µM; with SK-MEL-2 melanoma, 68.3 µM; in the test on SK-OV-3 ovarian, above 100 µM; in the test on SNB-75 CNS, 36 µM; in the test with T-47D breast, above 100 µM.
On to `O=C(NCCCNCCCCNCCCNC(=O)c1cc(-c2ccccc2)nc2ccccc12)c1cc(-c2ccccc2)nc2ccccc12`, for which the TGI was 15.5 µM in the test on BT-549 breast; above 59.1 µM in the test on DU-145 prostate; 3.8 µM in the test with HL-60(TB) leukemia; 3.57 µM with HT29 colon; 3.83 µM with K-562 leukemia; 3.12 µM in the test on LOX IMVI melanoma. Besides, the TGI is 4.01 µM with MALME-3M melanoma; 3.78 µM with MCF7 breast; 3.17 µM in the test on MDA-N; above 24.1 µM in the test on NCI-H23 lung; 5.64 µM in the test with NCI-H522 lung; above 24.8 µM in the test on OVCAR-4 ovarian. The results for the TGI in the test with SK-OV-3 ovarian and in the test on T-47D breast were 4.85 µM and 12.1 µM, respectively.
